The target in this assay is T1, human orexin-2 receptor (OX2R) (Homo sapiens, UniProt O43614).
T1 construct: expressed in transfected cells
T1 sequence (O43614 1-444): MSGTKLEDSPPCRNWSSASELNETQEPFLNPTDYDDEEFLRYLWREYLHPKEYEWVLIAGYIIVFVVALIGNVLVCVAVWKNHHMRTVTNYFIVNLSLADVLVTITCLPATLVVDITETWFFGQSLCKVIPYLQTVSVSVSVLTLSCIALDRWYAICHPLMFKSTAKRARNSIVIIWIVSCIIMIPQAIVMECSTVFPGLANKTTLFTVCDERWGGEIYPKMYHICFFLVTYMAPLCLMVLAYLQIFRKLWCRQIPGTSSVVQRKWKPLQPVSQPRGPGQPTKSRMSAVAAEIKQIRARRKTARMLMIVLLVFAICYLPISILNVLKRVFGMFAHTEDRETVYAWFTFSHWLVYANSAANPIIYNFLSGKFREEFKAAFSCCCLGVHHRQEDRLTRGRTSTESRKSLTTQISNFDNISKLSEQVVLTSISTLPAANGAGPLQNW
Nature of the assay: Human OX2R IP1 assay. The assay is classed as cell-based. To be noted: T-Rex CHO cells stably overexpressing human OX2R; IP1 accumulation, 1 hr at 37 degrees C; mean EC50. As for the experimental part:
T-Rex CHO cells stably overexpressing the human orexin-2 receptor (OX2R) were induced overnight with 1 μg/mL of doxycycline in a T225 flask. 24 hours post induction, cells were lifted with accutase and plated into a 384-well proxy plate at 30,000 cells/well. Cells were then treated with different test compounds in 1× stimulation buffer containing 10 mM Hepes, 1 mM CaCl2, 0.5 mM MgCl2, 4.2 mM KCl, 146 mM NaCl, 5.5 mM glucose, and 50 mM LiCl, pH 7.4, for 1 hr at 37 degrees C. Following incubation, the reaction was terminated by the addition of detection mix, which is composed of IP1-d2 and anti-IP1-cryptate diluted in lysis buffer as well as 1× stimulation buffer. The plates were allowed to incubate for 1 hour at room temperature and were then read in the EnVision® multimode plate reader, measuring inositol phosphate levels.
Cisbio IP1 is a cell-based functional assay quantifying the accumulation of inositol monophosphate (IP), a metabolite released as a result of orexin 2 receptor activation through the phospholipase C-Gq signaling pathway. This is a competitive immunoassay in which the IP1 produced by the cells upon receptor activation competes with the IP1 analog coupled to the d2 fluorophore (acceptor) for binding to an anti-IP1 monoclonal antibody labeled with Eu cryptate (donor). The measured HTRF-FRET based signal is inversely proportional to the IP1 concentration produced.
The EC50 values reported in Table 2 were obtained according to the human OX2R IP1 assay described above. Data are the mean EC50 values±S.E.M.

As a reminder, the EC50 is the midpoint of the concentration-response curve. `Cn1ncc2cc([C@H]3CC[C@@H](OC[C@@H]4CN(C(=O)C5CCOC5)CC[C@@H]4NS(C)(=O)=O)CC3)ccc21` (stereo partly shown) [Compound 60] gave an EC50 of more than 10 nM.
